Results reported in PubChem BioAssay AID256 (DTP/NCI, 2004).
Where “and” joins values, the source holds several entries; their conditions need not be identical. Equal values may be shown once. Inconclusive results and toxic doses are left out. How the source made its calls: active means survival T/C of 150% or more; inactive means T/C below 125% in these data. Residues, ends and D or L forms follow the SMILES beside them.

System: CD2F1 mice, L1210 leukemia ip, survival T/C
Assay: NCI In Vivo Anticancer Drug Screen. Data for tumor model L1210 Leukemia (intraperitoneal) in CD2F1 (CDF1) mice
Conditions: higher = longer survival
How it was run: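 Each value reflects a quotient of treated over vehicle control outcomes in mice with a transplanted tumor.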

[1] = endpoint: mean survival time, dose: 100.0 mg/kg/injection, schedule: Q04DX003 (ip), vehicle: saline with Tween-80
[2] = endpoint: mean survival time, dose: 200.0 mg/kg/injection, schedule: Q04DX003 (ip), vehicle: saline with Tween-80
[3] = endpoint: mean survival time, dose: 400.0 mg/kg/injection, schedule: Q04DX003 (ip), vehicle: saline with Tween-80
[4] = endpoint: mean survival time, dose: 100.0 mg/kg/injection, schedule: Q01DX009 (ip), vehicle: saline with Tween-80
[5] = endpoint: mean survival time, dose: 100.0 mg/kg/injection, schedule: Q04DX002 (ip), vehicle: saline with Tween-80
[6] = endpoint: mean survival time, dose: 200.0 mg/kg/injection, schedule: Q01DX009 (ip), vehicle: saline with Tween-80
[7] = endpoint: mean survival time, dose: 400.0 mg/kg/injection, schedule: Q01DX009 (ip), vehicle: saline with Tween-80
[8] = endpoint: mean survival time, dose: 25.0 mg/kg/injection, schedule: Q04DX003 (ip), vehicle: saline
[9] = endpoint: mean survival time, dose: 50.0 mg/kg/injection, schedule: Q04DX003 (ip), vehicle: saline
[10] = endpoint: mean survival time, dose: 100.0 mg/kg/injection, schedule: Q04DX003 (ip), vehicle: saline

Measured: T/C

C=CC1(C)CCN=C(CCC(C(=O)OCC)C(=O)OCC)O1 (stereo not given)
inactive: endpoint: mean survival time, dose: 100.0 mg/kg/injection, schedule: Q01DX001 (ip), vehicle: saline sonified 103 % of control | endpoint: mean survival time, dose: 200.0 mg/kg/injection, schedule: Q01DX001 (ip), vehicle: saline sonified 97 % of control | endpoint: mean survival time, dose: 400.0 mg/kg/injection, schedule: Q01DX001 (ip), vehicle: saline sonified 100 % of control

O=C(O)c1ccc(CCCBr)cc1
inactive: endpoint: mean survival time, dose: 100.0 mg/kg/injection, schedule: Q04DX003 (ip), vehicle: other 107 % of control | endpoint: mean survival time, dose: 200.0 mg/kg/injection, schedule: Q04DX003 (ip), vehicle: other 106 % of control | endpoint: mean survival time, dose: 400.0 mg/kg/injection, schedule: Q04DX003 (ip), vehicle: other 101 % of control

COC(=O)C1(C)CCCC2(C)C3CC4OC4(C(C)C)CC3(O)CCC12 (stereo not given)
inactive: [1] 96 % of control | [2] 96 % of control | [3] 98 % of control

COc1ccc(NC(=O)Oc2ccc(C(C)(C)C)cc2)cc1
inactive: endpoint: mean survival time, dose: 25.0 mg/kg/injection, schedule: Q01DX009 (ip), vehicle: saline with Tween-80 93 % of control | endpoint: mean survival time, dose: 25.0 mg/kg/injection, schedule: Q04DX002 (ip), vehicle: saline with Tween-80 104 % of control | endpoint: mean survival time, dose: 50.0 mg/kg/injection, schedule: Q01DX009 (ip), vehicle: saline with Tween-80 97 % of control | endpoint: mean survival time, dose: 50.0 mg/kg/injection, schedule: Q04DX002 (ip), vehicle: saline with Tween-80 117 % of control | [4] 97 % of control | [5] 87 % of control and 93 % of control

O=c1nc(Sc2ccccc2)ccn1C1OC(CO)C(O)C1O (stereo not given)
inactive: endpoint: mean survival time, dose: 12.5 mg/kg/injection, schedule: Q01DX005 (ip), vehicle: distilled water + Tween-80 106 % of control | endpoint: mean survival time, dose: 25.0 mg/kg/injection, schedule: Q01DX005 (ip), vehicle: distilled water + Tween-80 103 % of control | endpoint: mean survival time, dose: 50.0 mg/kg/injection, schedule: Q01DX005 (ip), vehicle: distilled water + Tween-80 106 % of control | endpoint: mean survival time, dose: 100.0 mg/kg/injection, schedule: Q01DX005 (ip), vehicle: distilled water + Tween-80 110 % of control | endpoint: mean survival time, dose: 200.0 mg/kg/injection, schedule: Q01DX005 (ip), vehicle: distilled water + Tween-80 118 % of control

O=C1CCc2c(Br)cccc21
inactive: [4] 106 % of control | [1] 114 % of control | [6] 101 % of control | [2] 100 % of control | [7] 110 % of control | [3] 101 % of control

Cc1ccc(S(=O)(=O)OCC2C3CC(c4ccccc43)C2COS(=O)(=O)c2ccc(C)cc2)cc1 (stereo not given)
inactive: [5] 102 % of control | endpoint: mean survival time, dose: 200.0 mg/kg/injection, schedule: Q04DX002 (ip), vehicle: saline with Tween-80 111 % of control | endpoint: mean survival time, dose: 400.0 mg/kg/injection, schedule: Q04DX002 (ip), vehicle: saline with Tween-80 95 % of control

CN=C(NC)S(=O)O
inactive: endpoint: mean survival time, dose: 100.0 mg/kg/injection, schedule: Q01DX009 (ip), vehicle: saline 97 % of control | endpoint: mean survival time, dose: 200.0 mg/kg/injection, schedule: Q01DX009 (ip), vehicle: saline 97 % of control | endpoint: mean survival time, dose: 400.0 mg/kg/injection, schedule: Q01DX009 (ip), vehicle: saline 101 % of control

O=C(Oc1ccccc1)c1cc(O)c(O)c(O)c1
inactive: endpoint: median survival time, dose: 25.0 mg/kg/injection, schedule: Q01DX009 (ip), vehicle: saline with Tween-80 101 % of control | endpoint: median survival time, dose: 50.0 mg/kg/injection, schedule: Q01DX009 (ip), vehicle: saline with Tween-80 98 % of control | endpoint: median survival time, dose: 100.0 mg/kg/injection, schedule: Q01DX009 (ip), vehicle: saline with Tween-80 105 % of control | endpoint: median survival time, dose: 200.0 mg/kg/injection, schedule: Q01DX009 (ip), vehicle: saline with Tween-80 112 % of control

CSc1ncnc2c1ccn2C1OC(CO)C(O)C1O (stereo not given)
inactive: endpoint: median survival time, dose: 12.5 mg/kg/injection, schedule: Q01DX005 (ip), vehicle: saline 106 % of control | endpoint: median survival time, dose: 25.0 mg/kg/injection, schedule: Q01DX005 (ip), vehicle: saline 105 % of control | endpoint: median survival time, dose: 50.0 mg/kg/injection, schedule: Q01DX005 (ip), vehicle: saline 102 % of control | endpoint: median survival time, dose: 100.0 mg/kg/injection, schedule: Q01DX005 (ip), vehicle: saline 103 % of control | endpoint: median survival time, dose: 200.0 mg/kg/injection, schedule: Q01DX005 (ip), vehicle: saline 94 % of control

O=C1c2ccccc2C(=O)N1Cc1ccccc1
inactive: [4] 105 % of control | [6] 100 % of control | [7] 103 % of control

CC(C)C(NC(=O)C(CCCN=C(N)N)NC(=O)C(N)CCCCN)C(N)=O (stereo not drawn) (H-Lys-Arg-Val-NH2; configuration not given here)
inactive: endpoint: mean survival time, dose: 12.5 mg/kg/injection, schedule: Q01DX009 (ip), vehicle: water 101 % of control | endpoint: mean survival time, dose: 25.0 mg/kg/injection, schedule: Q01DX009 (ip), vehicle: water 101 % of control | endpoint: mean survival time, dose: 50.0 mg/kg/injection, schedule: Q01DX009 (ip), vehicle: water 94 % of control | endpoint: mean survival time, dose: 100.0 mg/kg/injection, schedule: Q01DX009 (ip), vehicle: water 97 % of control | endpoint: mean survival time, dose: 200.0 mg/kg/injection, schedule: Q01DX009 (ip), vehicle: water 95 % of control

COc1cc2c(c(Oc3ccc(C)cc3)c1)CN(C)CC2
inactive: [8] 105 % of control | [9] 100 % of control | [10] 105 % of control

O=[N+]([O-])c1ccc(CCCl)c(CCl)c1
inactive: [1] 98 % of control | [2] 86 % of control

COC(=O)c1ccccc1NC(=O)Nc1cccc(OC)c1
inactive: endpoint: mean survival time, dose: 100.0 mg/kg/injection, schedule: Q01DX001 (ip), vehicle: Klucel (hydroxypropylcellulose) (HPC) 95 % of control | endpoint: mean survival time, dose: 200.0 mg/kg/injection, schedule: Q01DX001 (ip), vehicle: Klucel (hydroxypropylcellulose) (HPC) 101 % of control | endpoint: mean survival time, dose: 400.0 mg/kg/injection, schedule: Q01DX001 (ip), vehicle: Klucel (hydroxypropylcellulose) (HPC) 95 % of control

O=[N+]([O-])c1ccc2nc3ccscc-3c2c1
inactive: endpoint: mean survival time, dose: 100.0 mg/kg/injection, schedule: Q01DX001 (ip), vehicle: acetone 100 % of control | endpoint: mean survival time, dose: 200.0 mg/kg/injection, schedule: Q01DX001 (ip), vehicle: acetone 100 % of control | endpoint: mean survival time, dose: 400.0 mg/kg/injection, schedule: Q01DX001 (ip), vehicle: acetone 92 % of control

COc1cc(O)cc(OC)c1
inactive: [8] 103 % of control | [9] 102 % of control | [10] 100 % of control

COc1cccc2c1C(=O)OC2=O
inactive: endpoint: mean survival time, dose: 12.5 mg/kg/injection, schedule: Q01DX005 (ip), vehicle: Klucel (hydroxypropylcellulose) (HPC) 101 % of control | endpoint: mean survival time, dose: 25.0 mg/kg/injection, schedule: Q01DX005 (ip), vehicle: Klucel (hydroxypropylcellulose) (HPC) 101 % of control | endpoint: mean survival time, dose: 50.0 mg/kg/injection, schedule: Q01DX005 (ip), vehicle: Klucel (hydroxypropylcellulose) (HPC) 95 % of control | endpoint: mean survival time, dose: 100.0 mg/kg/injection, schedule: Q01DX005 (ip), vehicle: Klucel (hydroxypropylcellulose) (HPC) 94 % of control | endpoint: mean survival time, dose: 200.0 mg/kg/injection, schedule: Q01DX005 (ip), vehicle: Klucel (hydroxypropylcellulose) (HPC) 95 % of control

C1CCC(N=C(NC2CCCCC2)NC2CCCCC2)CC1
inactive: [1] 109 % of control | [2] 100 % of control
